Assay results as given in EP4342530A1, “SORTILIN MODULATORS” (Insusense ApS, priority 2022, dated 2024).

Experiments:
[1] = target: T1, Sortilin (Mus musculus, UniProt Q6PHU5); test: Creoptix (GCI) binding kinetics, mouse Sortilin; conditions: Species Mouse, screened at 1 µM, 25 degrees Celsius
T1 construct: purchased Bio-Techne Ltd 2934-ST-050
T1 sequence (Q6PHU5 76-753 limits assumed): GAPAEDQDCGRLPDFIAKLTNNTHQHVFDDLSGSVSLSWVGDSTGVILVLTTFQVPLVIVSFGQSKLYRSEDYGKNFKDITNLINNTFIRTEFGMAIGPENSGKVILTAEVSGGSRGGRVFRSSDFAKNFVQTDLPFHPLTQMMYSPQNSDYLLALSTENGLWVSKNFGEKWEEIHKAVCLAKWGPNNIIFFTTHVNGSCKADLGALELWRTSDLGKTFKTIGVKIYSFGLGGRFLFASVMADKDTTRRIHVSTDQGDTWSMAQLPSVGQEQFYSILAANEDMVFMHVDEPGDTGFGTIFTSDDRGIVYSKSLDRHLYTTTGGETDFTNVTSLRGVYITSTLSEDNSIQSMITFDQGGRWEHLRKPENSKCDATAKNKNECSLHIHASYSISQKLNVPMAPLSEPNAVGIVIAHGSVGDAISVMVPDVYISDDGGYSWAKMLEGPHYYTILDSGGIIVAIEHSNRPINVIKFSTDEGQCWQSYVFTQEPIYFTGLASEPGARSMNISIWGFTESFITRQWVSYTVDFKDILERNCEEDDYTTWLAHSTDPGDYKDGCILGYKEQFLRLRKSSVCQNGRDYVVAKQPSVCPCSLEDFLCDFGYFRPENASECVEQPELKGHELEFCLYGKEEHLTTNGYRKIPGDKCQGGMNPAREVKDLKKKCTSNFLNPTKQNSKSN
Method: (§1) Creoptix (GCI) method - using SEQ ID NO.4 (Murine sortillin)
(§2) A protein, bound to a surface, is bathed in a solution containing potential ligands giving rise to binding kinetics to generate Kon and Koff rates, as well as a Kd.
(§3) All buffers described were filtered using a 0.2µm filter (Product number: 10300461, Nalgene) and degassed for 15 minutes prior to use.
(§4) A flow cell temperature of 25 degrees Celsius was used throughout the experiment.
(§5) A 4PCH chip was conditioned across all flow cells using 0.2 X concentration running buffer (running buffer composition: 1XHBS-N, pH 7.4, 3.4 mM EDTA, 1% DMSO) using pre-set conditioning wizard (WAVE control software) injecting: 0.1 M borate, 1 M NaCl (pH 9) followed by three start-up injections of 0.2 X running buffer.
(§6) A buffer exchange was performed and 1x running buffer (1XHBS-N, pH 7.4, 3.4 mM EDTA, 1% DMSO) used during the immobilisation procedure: An initial injection of EDC/NHS (mixed in 1:1 ratio) was performed across all 4-flow cells to activate the surface for amine coupling of ligands.
(§7) Recombinant Sortilin aliquots were thawed quickly by hand and centrifuged at 13,300 rpm for 10 minutes. A 10 µg/ml protein solution was then made in pH 5.0 acetate and injected once for 20 minutes over flow-cells 2, 3 and 4 for human, human (flow cells 2 & 3), and mouse Sortilin respectively followed by a 60 second dissociation period.
(§8) A final 7-minute passivation injection of 50 mM tris was used across all flow cells.
(§9) A flow rate of 10 µl/min was used for all conditioning and immobilisation cycles.
(§10) Compounds were screened at 1 µM using the in-built 'intermediate binders' settings: 100 ul/min, 45 s baseline, 25 s association, 300 s dissociation, with blanks every 5th sample and a DMSO correction (1.5 % DMSO at the start and end of the experiment as well as every 20 cycles. An acquisition rate of 10 Hz was used throughout the experiment.
(§11) Compounds were screened at a final assay concentration of 1 µM and a final DMSO concentration was 1 %. To achieve this, compounds were diluted in DMSO from 10 mM stocks to 100 µM (100 x final assay concentration) then diluted 1:100 in running buffer which contained no DMSO to establish a final assay concentration of compound of 1 µM and a final DMSO concentration of 1 % [DMSO].
(§12) Compounds and DMSO were mixed by plate shaking at 1000 rpm for 60 seconds using a Bioshake instrument.
(§13) A flow rate of 100 µl/min was used throughout the experiment.
(§14) Data was evaluated using the RAPID kinetic analysis tool in the GCI WAVE_control software with data fitted using a standard 1:1 kinetic BioModel.

[2] = target: T2, h-Sortilin (Homo sapiens, UniProt Q99523); test: Neurotensin scintillation proximity assay (displacement of [3H]-neurotensin binding); conditions: 150 nM 6his-Sortilin, 5 nM [3H]-Neurotensin; average of at least 2 determinations; read-out: IC50 [3H]Neurotensin SPA
T2 sequence (Q99523 78-831): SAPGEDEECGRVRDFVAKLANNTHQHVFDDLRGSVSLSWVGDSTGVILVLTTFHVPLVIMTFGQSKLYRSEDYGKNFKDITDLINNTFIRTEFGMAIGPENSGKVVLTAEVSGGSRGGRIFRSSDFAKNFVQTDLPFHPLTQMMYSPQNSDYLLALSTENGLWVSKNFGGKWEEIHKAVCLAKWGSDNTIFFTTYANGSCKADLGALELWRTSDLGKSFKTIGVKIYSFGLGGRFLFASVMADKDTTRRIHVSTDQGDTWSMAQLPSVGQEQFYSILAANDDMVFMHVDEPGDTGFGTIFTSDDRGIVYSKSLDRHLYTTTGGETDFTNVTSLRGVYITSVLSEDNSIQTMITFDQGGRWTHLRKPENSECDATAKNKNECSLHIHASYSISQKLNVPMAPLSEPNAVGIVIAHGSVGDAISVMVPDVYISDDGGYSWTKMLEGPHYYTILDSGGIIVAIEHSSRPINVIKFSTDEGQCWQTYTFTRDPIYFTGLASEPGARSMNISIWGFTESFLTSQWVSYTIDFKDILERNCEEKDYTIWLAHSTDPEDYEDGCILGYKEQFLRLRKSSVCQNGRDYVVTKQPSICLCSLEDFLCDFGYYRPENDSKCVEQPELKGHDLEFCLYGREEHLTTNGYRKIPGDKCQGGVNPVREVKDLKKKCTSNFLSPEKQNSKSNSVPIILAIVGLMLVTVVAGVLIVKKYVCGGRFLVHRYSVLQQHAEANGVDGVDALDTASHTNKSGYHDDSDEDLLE
Method: The exemplified compounds of the invention were tested in a Neurotensin (NTS) scintillation proximity assay (SPA). NTS, which is a 13 amino acid neuropeptide, is a sortilin ligand. The IC50 is a measure of the amount of the compound required to inhibit the binding of NTS to sortilin by 50%. The skilled person will recognise that the lower the IC50 value, the less of the compound needed to achieve the desired effect, and as a result, the chances of undesirable off-target effects are reduced.
Compound affinity was determined by measuring the displacement of [3H]-neurotensin binding to h-Sortilin in SPA format. Total volume of 40 µl in 50 mM HEPES pH 7.4 assay buffer containing 100 mM NaCl, 2.0 mM CaCl2, 0.1% BSA and 0.1% Tween-20. Compound pre-incubation for 30 minutes at room temperature with 150 nM of 6his-Sortilin before 5 nM [3H]-Neurotensin and Ni chelate imaging beads (Perkin Elmer) were added, after 6 hours the plate was read on a ViewLux with 360 s exposure time. Dose-response evaluation of compounds was performed with 8 concentrations of drugs (covering 3 decades). IC50 values were calculated by nonlinear regression using the sigmoid concentration-response (variable slope) using CDD Vault software. All values reported are average of at least 2 determinations.

[3] = target: T3, Sortilin (Homo sapiens, UniProt Q99523); test: Creoptix (GCI) binding kinetics, human Sortilin; conditions: Species Human, screened at 1 µM, 25 degrees Celsius
T3 construct: purchased Bio-Techne Ltd 3154-ST-050
T3 sequence (Q99523 78-755 limits assumed): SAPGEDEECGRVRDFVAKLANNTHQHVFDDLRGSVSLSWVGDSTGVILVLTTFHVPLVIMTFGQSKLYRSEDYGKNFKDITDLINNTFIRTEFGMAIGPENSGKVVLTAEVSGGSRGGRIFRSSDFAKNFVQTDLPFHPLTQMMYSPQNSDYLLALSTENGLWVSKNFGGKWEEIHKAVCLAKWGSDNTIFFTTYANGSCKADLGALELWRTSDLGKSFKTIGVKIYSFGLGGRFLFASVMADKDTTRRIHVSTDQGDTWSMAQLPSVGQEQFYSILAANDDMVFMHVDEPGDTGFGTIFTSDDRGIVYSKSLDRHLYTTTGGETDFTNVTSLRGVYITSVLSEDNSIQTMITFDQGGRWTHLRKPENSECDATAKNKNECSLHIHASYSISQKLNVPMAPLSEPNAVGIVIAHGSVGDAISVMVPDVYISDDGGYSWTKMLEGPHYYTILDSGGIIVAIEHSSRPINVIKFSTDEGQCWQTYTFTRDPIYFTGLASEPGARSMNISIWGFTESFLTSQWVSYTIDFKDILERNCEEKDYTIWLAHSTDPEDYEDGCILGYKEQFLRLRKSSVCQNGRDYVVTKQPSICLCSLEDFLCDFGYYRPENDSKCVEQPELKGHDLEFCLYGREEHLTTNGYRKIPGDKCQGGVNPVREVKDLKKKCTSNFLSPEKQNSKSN
Method: as §1, §2, §3, §4, §5, §6, §7, §8, §9, §10, §11, §12, §13, §14

Compound | Kd ([1]; Form of Compound Free acid) [nM] | IC50 [2] [nM] | Kd ([3]; Form of Compound Free acid) [nM] | Kd ([1]; Form of Compound Mesylate salt) [nM] | Kd ([3]; Form of Compound Mesylate salt) [nM] | Kd ([3]; Form of Compound HCl salt) [nM]
CN1CCc2cc(CN[C@@H](CCC(C)(C)C)C(=O)O)ccc2C1 [Example 10, (S)-5,5-dimethyl-2-(((2-methyl-1,2,3,4-tetrahydroisoquinolin-6-yl)methyl)amino)hexanoic acid] | 241 | 640 | 200 |  |  | 
CC(C)(C)CC[C@H](NCc1ccc2c(c1)CCCN2)C(=O)O [Example 16, (2S)-5,5-dimethyl-2-{[(1,2,3,4-tetrahydroquinolin-6-yl)methyl]amino}hexanoic acid] | 299 | 570 | 255 |  |  | 
CC(C)(C)CC[C@H](NCc1ccc2c(c1)CNCC2)C(=O)O [Example 18, (2S)-5,5-dimethyl-2-{[(1,2,3,4-tetrahydroisoquinolin-7-yl)methyl]amino}hexanoic acid] | 2280 | 500 | 1420 |  |  | 
CN1CCOc2cc(CN[C@@H](CCC(C)(C)C)C(=O)O)ccc21 [Example 19, (S)-5,5-dimethyl-2-(((4-methyl-3,4-dihydro-2H-benzo[b][1,4]oxazin-7-yl)methyl)amino)hexanoic acid] | 3180 | 660 | 3720 |  |  | 
CN1CCOc2ccc(CN[C@@H](CCC(C)(C)C)C(=O)O)cc21 [Example 30, (2S)-5,5-dimethyl-2-{[(4-methyl-3,4-dihydro-2H-1,4-benzoxazin-6-yl)methyl]amino}hexanoic acid] | 7600 | 350 | 5070 |  |  | 
C[C@@H](N[C@@H](CCC(C)(C)C)C(=O)O)c1ccc2c(c1)OCCO2 [Example 51] |  | 280 | 181 |  |  | 
C[C@@H](N[C@@H](CCC(C)(C)C)C(=O)O)c1ccc2c(c1)OCO2 [Example 54] |  | 380 | 105 |  |  | 
CC(C)(C)CC[C@H](N[C@H](c1ccc2c(c1)OCCC2)C(F)F)C(=O)O [Example 56] |  | 310 | 696 |  |  | 
C[C@@H](N[C@@H](CCC(C)(C)C)C(=O)O)c1ccc2c(c1)NCCC2 [Example 58] | 70.3 | 310 | 67 |  |  | 
C[C@H](N[C@@H](CCC(C)(C)C)C(=O)O)c1ccc2c(c1)CCOC2 [Example 59] |  | 320 |  | 204 | 218 | 
C[C@H](N[C@@H](CCC(C)(C)C)C(=O)O)c1ccc2c(c1)OCCO2 [Example 61] |  | 350 | 144 |  |  | 
CC(C)(C)CC[C@H](NCc1ccc2c(c1)OCO2)C(=O)O [Example 68] |  | 860 | 163 |  |  | 
C[C@H](N[C@@H](CCC(C)(C)C)C(=O)O)c1ccc2c(c1)OCO2 [Example 70] | 116 | 530 | 133 |  |  | 
CC(C)(C)CC[C@H](N[C@H](c1ccc2c(c1)CCCC2)C(F)F)C(=O)O [Example 71] |  | 590 | 193 |  |  | 
CC(C)(C)CC[C@H](NCc1cccc2c1CCCO2)C(=O)O [Example 72] |  | 1080 | 613 |  |  | 
CC(C)(C)CC[C@H](NCc1ccnc(Oc2ccccc2)c1)C(=O)O [Example 76] |  | 230 | 58.3 |  |  | 
(2S)-5,5-dimethyl-2-{[(5,6,7,8-tetrahydronaphthalen-2-yl)methyl]amino}hexanoic acid [Example 4] |  | 120 | 40.9 |  | 42.5 | 51.7
